Measured values from article PMC8398255, “Synthesis of 3,5-Bis(trifluoromethyl)phenyl-Substituted Pyrazole Derivatives as Potent Growth Inhibitors of Drug-Resistant Bacteria” (Molecules, 2021).
In brackets after ≈: the same amount, converted by molar mass.

Assays:
[1] = system: Bacillus subtilis ATCC 6623 (Bs); test: MIC, microdilution (CLSI); type: cell-based; conditions: ATCC6623; Bs, Bacillus subtilis ATCC 6623; n = 3; read-out: MIC
Method in brief: (§1)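 2-fold dilutions in CAMHB, top 32 µg/mL (DMSO solutions); bacterial inoculum added; 18–20 h, 35 ℃; MIC = lowest conc. without turbidity by eye; ≥duplicate, n = 3 independent runs with fresh cultures on different days.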

[2] = system: E. faecalis ATCC 29212 (Ef12); test: MIC, microdilution (CLSI); type: cell-based; conditions: Enterococcus faecalis, ATCC29212; Ef12, antibiotic susceptible E. faecalis ATCC 29212; n = 3; read-out: MIC
Method in brief: as §1

[3] = system: E. faecalis ATCC 51299 (Ef99); test: MIC, microdilution (CLSI); type: cell-based; conditions: Enterococcus faecalis, ATCC 51299 / VRE; Ef99, vancomycin-resistant (VRE) E. faecalis ATCC 51299; n = 3; read-out: MIC
Method in brief: as §1

[4] = system: E. faecium ATCC 700221 (Ef21); test: MIC, microdilution (CLSI); type: cell-based; conditions: Enterococcus faecium, ATCC 700221 / VRE; Ef21, vancomycin-resistant (VRE) E. faecium ATCC 700221; n = 3; read-out: MIC
Method in brief: as §1

[5] = system: S. aureus ATCC 25923 (Sa23); test: MIC, microdilution (CLSI); type: cell-based; conditions: Staphylococcus aureus, ATCC25923; Sa23, antibiotic susceptible S. aureus ATCC 25923; n = 3; read-out: MIC
Method in brief: as §1

[6] = system: S. aureus ATCC 33591 (Sa91); test: MIC, microdilution (CLSI); type: cell-based; conditions: Staphylococcus aureus, ATCC33591; Sa91, methicillin-resistant S. aureus ATCC 33591; n = 3; read-out: MIC
Method in brief: as §1

[7] = system: S. aureus ATCC 33592 (Sa92); test: MIC, microdilution (CLSI); type: cell-based; conditions: Staphylococcus aureus, ATCC33592; Sa92, methicillin-resistant S. aureus ATCC 33592; n = 3; read-out: MIC
Method in brief: as §1

[8] = system: S. aureus ATCC 700699 (Sa99); test: MIC, microdilution (CLSI); type: cell-based; conditions: Staphylococcus aureus, ATCC700699; Sa99, methicillin-resistant S. aureus ATCC 700699; n = 3; read-out: MIC
Method in brief: as §1

[9] = system: S. aureus BAA-2312 (Sa12); test: MIC, microdilution (CLSI); type: cell-based; conditions: Staphylococcus aureus, BAA2312; Sa12, methicillin-resistant S. aureus BAA-2312; n = 3; read-out: MIC
Method in brief: as §1

[10] = system: S. epidermidis ATCC 700296 (Se); test: MIC, microdilution (CLSI); type: cell-based; conditions: Staphylococcus epidermidis, ATCC700296; Se, S. epidermidis ATCC 700296; n = 3; read-out: MIC
Method in brief: as §1

S. aureus strains = test: MIC against S. aureus strains; type: cell-based, Staphylococcus aureus
Description: (§2) Compounds were dissolved in dimethyl sulfoxide (DMSO) to achieve a starting concentration of 32 µg/mL as described by us previously. Compounds were further diluted two-fold across the 96-well honeycomb plate columns in cation adjusted Mueller Hinton broth (CAMHB), and bacterial culture was added. Plates were incubated for 18–20 h at 35 ℃ before determining the minimum concentrations at which wells had no visible turbidity to the naked eye. The MIC values were determined from at least a duplicate result obtained from three independent experiments using fresh bacterial cultures on different days.

enterococci strains = test: MIC against enterococci strains; type: cell-based; conditions: tested enterococci strains
Description: as §2

- MIC [1]: 1 µg/mL (≈ 1.62 µM)
- MIC [2]: 1 µg/mL (≈ 1.62 µM)
- MIC [3]: 1 µg/mL (≈ 1.62 µM)
- MIC [4]: 1 µg/mL (≈ 1.62 µM)
- MIC [5]: 1 µg/mL (≈ 1.62 µM)
- MIC [6]: 0.5 µg/mL (≈ 0.808 µM)
- MIC [7]: 0.5 µg/mL (≈ 0.808 µM)
- MIC [8]: 2 µg/mL (≈ 3.23 µM)
- MIC [9]: 1 µg/mL (≈ 1.62 µM)
- MIC [10]: 2 µg/mL (≈ 3.23 µM)
- MIC (S. aureus strains; Staphylococcus aureus, S. aureus strains, including MRSA): ≥ 0.5 µg/mL
- MIC (enterococci strains): 1 µg/mL (≈ 1.62 µM)
Compound: O=C(O)c1ccc(-n2cc(CNc3ccc(Br)c(Cl)c3)c(-c3cc(C(F)(F)F)cc(C(F)(F)F)c3)n2)cc1 [Compound 21, 4-[3-[3,5-Bis(trifluoromethyl)phenyl]-4-[(4-bromo-3-chloro-anilino)methyl]pyrazol-1-yl] benzoic acid]
- times more effective than vancomycin and daptomycin (S. aureus strains; against S. aureus strains): up to 4 times
